# Values quoted from earlier work as cited in patent publication US9371263B2, “Protective effects of curcumin against hemorrhagic stroke injury” (Augusta University Research Institute, Inc., priority 2013, dated 2016).
# Details: humans, oral administration
smiles,measurement,value
"COc1cc(/C=C/C(=O)CC(=O)/C=C/c2ccc(O)c(OC)c2)ccc1O [curcumin, diferuloylmethane]",systemic bioavailability,relatively low
